Consider 8 compounds from PMC4503722, “Novel Phenotypic Outcomes Identified for a Public Collection of Approved Drugs from a Publicly Accessible Panel of Assays” (PLoS ONE, 2015).

The structures appear in SMILES notation.

Test [1] deals with Colo320. Description: cells. It is filed as cell-based. Conditions: assay number 27.
In test [2] the test system is SW480. Put plainly: cells. The conditions noted are these: assay number 24. It is filed as cell-based.
The subject of test [3] is HCT116. Description: cells. The conditions noted are these: assay number 25, basal. It is filed as cell-based.
For test [4], the system named is HT-29. Description: cells. It is filed as cell-based. The conditions noted are these: assay number 28.
The subject of test [5] is HCT116 cells treated with a GSK3β inhibitor. Put plainly: cells. It is filed as cell-based. Conditions: assay number 26, GSK3b inhibitor pretreated.
The subject of test [6] is DLD-1. Put plainly: cells. The conditions noted are these: assay number 23. It is filed as cell-based.
For test [7], the system named is SNU-C1. Put plainly: cells. It is filed as cell-based. The conditions noted are these: assay number 30.
Test [8] has as its system RKO. Put plainly: cells. The conditions noted are these: assay number 29. It is filed as cell-based.
Test [9] deals with HeLa cells. Put plainly: cells. It is filed as cell-based.
Test [10] concerns endothelial tube formation in co-cultures of ECFCs and ADSCs treated with VEGF. Put plainly: cells. It is filed as cell-based, human.
The subject of test [11] is ECFC/ADSC co-culture cell nuclei number.

Regarding `COc1ccc(CN2CCN(C(c3ccc(F)cc3)c3ccc(F)cc3)CC2)c(OC)c1OC.Cl.Cl` [NCGC00164543-02], the “Basal_Viability ATP Colo 320 IC50/EC50” value in test [1] was 2.817 µM. Also, the “Basal_Viability ATP SW480 IC50/EC50” value in test [2] amounted to 3.3247 µM. Besides, the “Basal_Viability ATP HCT116 IC50/EC50” value in [3] was 1.7018 µM. In addition, the “Basal_Viability ATP HT-29 IC50/EC50” value in [4] was 2.926 µM. Moreover, the “GSK3b inh pretreated_Viability ATP HCT116 IC50/EC50” value in [5] is reported as 2.7677 µM. Besides, the “Basal_Viability ATP DLD-1 IC50/EC50” value in test [6] came out at 3.1331 µM. Besides, in [7], the “Basal_Viability ATP SNU-C1 IC50/EC50” value was 0.4428 µM. Further, the “Basal_Viability ATP RKO IC50/EC50” value in test [8] is 3.6952 µM.

For the compound `Nc1nc(Cl)nc2c1ncn2[C@@H]1O[C@H](CO)[C@@H](O)[C@@H]1F` [NCGC00164553-02], the “Basal_Viability ATP Colo 320 IC50/EC50” value in [1] (basal) is above 20 µM. The “Basal_Viability ATP HCT116 IC50/EC50” value in test [3] was 0.001 µM. For the same compound, the “Basal_Viability ATP HT-29 IC50/EC50” value in [4] (basal) was above 20 µM. Further, the “GSK3b inh pretreated_Viability ATP HCT116 IC50/EC50” value in test [5] came out at 0.001 µM. The “Hela CellCycMod PI 2N IC50/EC50” value in test [9] (assay number 14, 2N) is reported as above 10 µM. Also, the “Hela CellCycMod PI S Phase IC50/EC50” value in test [9] (assay number 15, S phase) is recorded as above 10 µM. Also, the “Hela CellCycMod PI 4N IC50/EC50” value in test [9] (assay number 16, 4N) is above 10 µM. Moreover, the “Hela CellCycMod PI MI IC50/EC50” value in test [9] (assay number 17, MI) was above 10 µM. For the same compound, the “Hela CellCycMod PI Cell Number IC50/EC50” value in [9] (assay number 18, cell number) was 0.00516 µM. Further, in test [6] (basal), the “Basal_Viability ATP DLD-1 IC50/EC50” value was found to be 0.1636 µM. Further, the “Basal_Viability ATP SNU-C1 IC50/EC50” value in test [7] (basal) is recorded as above 20 µM. In test [8] (basal), the “Basal_Viability ATP RKO IC50/EC50” value is reported as 0.001 µM.

As to `CCCCCCCCCCCCCCCCC(C(=O)O)C(O)(CC(=O)O)C(=O)O` (centres unmarked) [NCGC00167547-02], in test [1] (basal), the “Basal_Viability ATP Colo 320 IC50/EC50” value worked out at 1.3621 µM. For the same compound, the “Basal_Viability ATP SW480 IC50/EC50” value in test [2] (basal) is given as 1.1952 µM. The “Basal_Viability ATP HCT116 IC50/EC50” value in test [3] was 8.6847 µM. Besides, the “Basal_Viability ATP HT-29 IC50/EC50” value in [4] (basal) is 4.0996 µM. Further, the “GSK3b inh pretreated_Viability ATP HCT116 IC50/EC50” value in test [5] came out at 4.3382 µM. In addition, in test [6] (basal), the “Basal_Viability ATP DLD-1 IC50/EC50” value came out at 4.2832 µM. Moreover, in test [7] (basal), the “Basal_Viability ATP SNU-C1 IC50/EC50” value amounted to 1.3613 µM. In [8] (basal), the “Basal_Viability ATP RKO IC50/EC50” value is reported as 3.4822 µM.

In the case of `Cc1ccc(C(=O)c2cc(O)c(O)c([N+](=O)[O-])c2)cc1` [NCGC00181767-03], in [1] (basal), the “Basal_Viability ATP Colo 320 IC50/EC50” value amounted to 2.503 µM. Also, in test [2] (basal), the “Basal_Viability ATP SW480 IC50/EC50” value was 4.644 µM. Also, the “Basal_Viability ATP HCT116 IC50/EC50” value in test [3] worked out at 2.292 µM. In test [4] (basal), the “Basal_Viability ATP HT-29 IC50/EC50” value is above 20 µM. Also, the “GSK3b inh pretreated_Viability ATP HCT116 IC50/EC50” value in [5] is listed as 0.265 µM. Besides, the “Basal_Viability ATP DLD-1 IC50/EC50” value in test [6] (basal) amounted to 6.142 µM. Moreover, in test [7] (basal), the “Basal_Viability ATP SNU-C1 IC50/EC50” value is reported as 4.536 µM. In addition, the “Basal_Viability ATP RKO IC50/EC50” value in [8] (basal) is listed as 1.876 µM.

Turning to `O=C(Nc1ccc(Cl)cc1)Nc1ccc(Cl)c(C(F)(F)F)c1` [NCGC00185743-02], the IC50 in test [1] (basal, read-out: Basal_Viability ATP Colo 320 summarized IC50) amounted to 0.003 µM; in [2] (basal, read-out: Basal_Viability ATP SW480 summarized IC50) it was 0.009 µM; in test [3] (read-out: Basal_Viability ATP HCT116 summarized IC50), 0.003 µM; in [4] (basal, read-out: Basal_Viability ATP HT-29 summarized IC50), 0.001 µM; in test [5] (read-out: GSK3b inh pretreated_Viability ATP HCT116 summarized IC50) it was 0.003 µM; in [6] (basal, read-out: Basal_Viability ATP DLD-1 summarized IC50), 0.027 µM. Moreover, the IC50 in test [7] (basal, read-out: Basal_Viability ATP SNU-C1 summarized IC50) was 0.009 µM; in test [8] (basal, read-out: Basal_Viability ATP RKO summarized IC50), 0.003 µM.

Turning to `CN(C)[C@@H](CCOc1cccc2ccccc12)c1ccccc1` [NCGC00253658-01], the “Basal_Viability ATP Colo 320 IC50/EC50” value in test [1] is above 20 µM. Further, the “Basal_Viability ATP SW480 IC50/EC50” value in [2] was above 20 µM. Besides, the “Basal_Viability ATP HCT116 IC50/EC50” value in test [3] is above 20 µM. Also, the “Basal_Viability ATP HT-29 IC50/EC50” value in test [4] was above 20 µM. The “GSK3b inh pretreated_Viability ATP HCT116 IC50/EC50” value in test [5] is on record as 9.8615 µM. The “Basal_Viability ATP DLD-1 IC50/EC50” value in test [6] is above 20 µM. For the same compound, the “Basal_Viability ATP SNU-C1 IC50/EC50” value in test [7] stood at 12.8035 µM. The “Basal_Viability ATP RKO IC50/EC50” value in test [8] came out at 8.1098 µM.

On to `O=C(O)C1(C(=O)O)CCC1.[NH2-].[NH2-].[Pt+2]` [NCGC00263858-02], for which, in test [1] (basal), the “Basal_Viability ATP Colo 320 IC50/EC50” value is listed as above 20 µM. In addition, the “Basal_Viability ATP SW480 IC50/EC50” value in [2] (basal) is recorded as above 20 µM. For the same compound, the “Basal_Viability ATP HCT116 IC50/EC50” value in test [3] is above 20 µM. Further, the “VEGF_ADSC\ECFC Angio CD31 TubeArea IC50/EC50” value in test [10] is given as above 10 µM. The “Basal_Viability ATP HT-29 IC50/EC50” value in test [4] (basal) is reported as above 20 µM. For the same compound, the “Basal_Viability ATP DLD-1 IC50/EC50” value in test [6] (basal) is on record as above 20 µM. In addition, in [7] (basal), the “Basal_Viability ATP SNU-C1 IC50/EC50” value is above 20 µM. The “Basal_Viability ATP RKO IC50/EC50” value in test [8] (basal) was above 20 µM. In test [11], the “VEGF_ADSC\ECFC Angio Hoechst NucArea IC50/EC50” value is above 10 µM.

Take `C=Cc1c(C)c2cc3nc(cc4[nH]c(cc5nc(cc1[nH]2)C(C)=C5CCC(=O)O)c(CCC(=O)OC)c4C)[C@@]1(C)C3=CC=C(C(=O)OC)[C@@H]1C(=O)OC` [NCGC00344558-01]: in test [1] (basal), the “Basal_Viability ATP Colo 320 IC50/EC50” value was determined as 9.6205 µM. The “Basal_Viability ATP SW480 IC50/EC50” value in test [2] (basal) is above 6.667 µM. Further, in test [3], the “Basal_Viability ATP HCT116 IC50/EC50” value turned out to be 5.6514 µM. Further, the “Basal_Viability ATP HT-29 IC50/EC50” value in [4] (basal) is on record as 3.9401 µM. Further, in [5], the “GSK3b inh pretreated_Viability ATP HCT116 IC50/EC50” value stood at 4.2601 µM. Also, the “Basal_Viability ATP SNU-C1 IC50/EC50” value in test [7] (basal) came to 5.854 µM. Moreover, the “Basal_Viability ATP RKO IC50/EC50” value in [8] (basal) was 3.5296 µM.

In general, IC50 refers to the point on the concentration scale where inhibition reaches its midpoint.
